# From patent publication US11478515B2, “Compositions comprising probiotic and prebiotic components and mineral salts, with lactoferrin” (GlaxoSmithKline Consumer Healthcare S.R.L., priority 2009, dated 2022)
# Where a SMILES comes first, the peptide text is derived from it. Bridges are numbered along the chain shown (N, C = ends). [ ]: non-standard residue; d: D form. The star is where a group is joined. Ileψ(thiazoline)Cys = CC[C@H](C)[C@H](N)C1=N[C@H](C(=O)*)CS1; dOrn = NCCC[C@@H](N)C(=O)O
# Tested on: Bifidobacterium longum R175
# Assay: antibiotic resistance profile
# Assay type: cell-based
# Conditions: dose of each agent
row,Compound,outcome (antibiotic resistance profile)
1,CN[C@H](CC(C)C)C(=O)N[C@H]1C(=O)N[C@@H](CC(N)=O)C(=O)N[C@H]2C(=O)N[C@H]3C(=O)N[C@H](C(=O)N[C@H](C(=O)O)c4cc(O)cc(O)c4-c4cc3ccc4O)[C@H](O)c3ccc(c(Cl)c3)Oc3cc2cc(c3O[C@@H]2O[C@H](CO)[C@@H](O)[C@H](O)[C@H]2O[C@H]2C[C@](C)(N)[C@H](O)[C@H](C)O2)Oc2ccc(cc2Cl)[C@H]1O [Vancomycin],susceptible
2,gentamycin,resistant
3,CC[C@H](C)[C@H](N)C1=N[C@H](C(=O)N[C@@H](CC(C)C)C(=O)N[C@H](CCC(=O)O)C(=O)N[C@H](C(=O)N[C@H]2CCCCNC(=O)[C@H](CC(N)=O)NC(=O)[C@@H](CC(=O)O)NC(=O)[C@H](Cc3cnc[nH]3)NC(=O)[C@@H](Cc3ccccc3)NC(=O)[C@H]([C@@H](C)CC)NC(=O)[C@@H](CCCN)NC2=O)[C@@H](C)CC)CS1 [Bacitracin] ({Ileψ(thiazoline)Cys}-L[dE]IK[dOrn]I[dF]H[dD]N; lactam 4-C),susceptible
4,CO[C@H]1/C=C/O[C@@]2(C)Oc3c(C)c(O)c4c(O)c(c(/C=N/N5CCN(C)CC5)c(O)c4c3C2=O)NC(=O)/C(C)=C\C=C\[C@H](C)[C@H](O)[C@@H](C)[C@@H](O)[C@@H](C)[C@H](OC(C)=O)[C@@H]1C [Rifampin],susceptible
5,O=C(N[C@H](CO)[C@H](O)c1ccc([N+](=O)[O-])cc1)C(Cl)Cl [chloramphenicol],susceptible
6,CC(=O)OCC1=C(C(=O)O)N2C(=O)[C@@H](NC(=O)Cc3cccs3)[C@H]2SC1 [cephalothin],susceptible
7,CC1(C)S[C@@H]2[C@H](NC(=O)Cc3ccccc3)C(=O)N2[C@H]1C(=O)O [penicillin G],susceptible
8,Polymyxin B,resistant
9,Cc1noc(NS(=O)(=O)c2ccc(N)cc2)c1C [sulfisoxazole],resistant
10,Neomycin,resistant
11,CC[C@H]1OC(=O)[C@H](C)[C@@H](O[C@H]2C[C@@](C)(OC)[C@@H](O)[C@H](C)O2)[C@H](C)[C@@H](O[C@@H]2O[C@H](C)C[C@H](N(C)C)[C@H]2O)[C@](C)(O)C[C@@H](C)C(=O)[C@H](C)[C@@H](O)[C@]1(C)O [erythromycin],susceptible
12,CO[C@@H]1[C@@H](OC(N)=O)[C@@H](O)[C@H](Oc2ccc3c(O)c(NC(=O)c4ccc(O)c(CC=C(C)C)c4)c(=O)oc3c2C)OC1(C)C [novobiocin],susceptible
13,[H]/N=C(/N)N[C@H]1[C@H](O)[C@@H](O)[C@H](O[C@@H]2O[C@@H](C)[C@](O)(C=O)[C@H]2O[C@@H]2O[C@@H](CO)[C@H](O)[C@@H](O)[C@@H]2NC)[C@@H](N/C(N)=N\[H])[C@@H]1O [streptomycin],resistant
14,CCC[C@@H]1C[C@@H](C(=O)N[C@@H]([C@H]2O[C@H](SC)[C@H](O)[C@@H](O)[C@H]2O)[C@@H](C)O)N(C)C1 [lincomycin],intermediate
15,CC1(C)S[C@@H]2[C@H](NC(=O)[C@H](N)c3ccccc3)C(=O)N2[C@H]1C(=O)O [Ampicillin],susceptible
